Experiment: UV absorption (λmax, molar extinction ε, extinction value E 1%, 1 cm) of the triazine UV filters
Type: physicochemical
[1] = at λmax 320 nm, solvent not stated
[2] = second band at 224 nm, solvent not stated

Compound | E (1%, 1 cm) (at λmax, in ethanol) | ε (at λmax, in ethanol) [L/mol/cm] | λmax (in ethanol) [nm] | E (1%, 1 cm) (at λmax, in dioxane) | ε (at λmax, in dioxane) | λmax (in dioxane) [nm] | other results
CC1(C)CC(=O)C(=CNc2nc(NC=C3C(=O)CC(C)(C)CC3=O)nc(-c3ccccc3)n2)C(=O)C1 [Example 1] | – | – | – | – | – | – | E (=extinction value) (1%, 1 cm) [1]: 1045; ε [1]: 51000 L/mol/cm; λmax (main band, solvent not stated): 320 nm; E (1%, 1 cm) [2]: 732; ε [2]: 35700 L/mol/cm; γmax (second band, solvent not stated): 224 nm
CC1(C)OC(=O)C(=CNc2nc(NC=C3C(=O)OC(C)(C)OC3=O)nc(-c3ccccc3)n2)C(=O)O1 [Example 3] | – | – | – | 1374 | 68000 L/mol/cm | 332 | –
CCOC(=O)/C(=C\Nc1nc(N/C=C(\C(C)=O)C(=O)OCC)nc(-c2ccccc2)n1)C(C)=O [Example 4] | 983 | 46000 | 319 | – | – | – | –
CCOC(=O)/C(=C\Nc1nc(N/C=C(\C(C)=O)C(=O)OCC)nc(N/C=C(\C(C)=O)C(=O)OCC)n1)C(C)=O [Example 5] | – | – | – | 1350 | – | 325 | –

More lines, main results first:

E (1%, 1 cm) (at λmax, in ethanol) | ε (at λmax, in ethanol) [L/mol/cm] | λmax (in ethanol) [nm] | E (1%, 1 cm) (at λmax, in dioxane) | ε (at λmax, in dioxane) | λmax (in dioxane) [nm] | Compound | other results
1053 | 42900 | 322 | – | – | – | CC(=O)C(=CNc1nc(NC=C(C(C)=O)C(C)=O)nc(-c2ccccc2)n1)C(C)=O [Example 2] | –
– | – | – | 1053 | 61 956 | 326 | CC1(C)OC(=O)C(=CNc2nc(NC=C3C(=O)OC(C)(C)OC3=O)nc(NC=C3C(=O)OC(C)(C)OC3=O)n2)C(=O)O1 [Example 6] | –
